# Test results as given in ChEMBL document CHEMBL3351528, “Targeting dopamine D3 and serotonin 5-HT1A and 5-HT2A receptors for developing effective antipsychotics: synthesis, biological characterization, and behavioral studies” (J Med Chem, 2014).
# Legend:
# [1] = biological target: T1, hERG (KCNH2) (Homo sapiens, UniProt Q12809); assay: Inhibition of human ERG at 1 uM by whole cell based electrophysiology assay
# [2] = biological target: T1, hERG (KCNH2); assay: Inhibition of human ERG at 3 uM by whole cell based electrophysiology assay
# [3] = biological target: T2, 5-hydroxytryptamine receptor 1A (Homo sapiens, UniProt P08908)
# T2 sequence (P08908 whole entry): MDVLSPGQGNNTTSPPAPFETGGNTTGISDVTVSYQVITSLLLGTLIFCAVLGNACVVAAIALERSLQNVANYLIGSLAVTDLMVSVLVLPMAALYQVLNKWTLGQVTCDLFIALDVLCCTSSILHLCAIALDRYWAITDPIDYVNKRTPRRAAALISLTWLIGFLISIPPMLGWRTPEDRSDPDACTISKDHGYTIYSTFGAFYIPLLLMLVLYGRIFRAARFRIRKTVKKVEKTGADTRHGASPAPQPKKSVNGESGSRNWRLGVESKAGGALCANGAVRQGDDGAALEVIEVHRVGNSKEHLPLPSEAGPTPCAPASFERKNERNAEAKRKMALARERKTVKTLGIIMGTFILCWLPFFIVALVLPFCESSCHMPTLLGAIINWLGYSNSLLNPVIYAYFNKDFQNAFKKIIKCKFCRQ
# Description: Binding affinity to 5HT1A receptor (unknown origin)
# [4] = tested on: Mus musculus; assay: Reduction in startle response in mouse at 30 mg/kg, po dosed 30 mins before testing; format: ADME, organism-based; parameters: dose 30 mg/kg, route oral; conditions: in vivo, 0.5 h
# [5] = tested on: Mus musculus; assay: Toxicity in NMRI mouse assessed as induction of catalepsy up to 90 mg/kg, sc dosed 30 mins before test; format: organism-based; parameters: dose 90 mg/kg, route subcutaneous; conditions: in vivo, 0.5 h
# [6] = biological target: T3, 5-hydroxytryptamine receptor 2C (Homo sapiens, UniProt P28335)
# T3 sequence (P28335 whole entry): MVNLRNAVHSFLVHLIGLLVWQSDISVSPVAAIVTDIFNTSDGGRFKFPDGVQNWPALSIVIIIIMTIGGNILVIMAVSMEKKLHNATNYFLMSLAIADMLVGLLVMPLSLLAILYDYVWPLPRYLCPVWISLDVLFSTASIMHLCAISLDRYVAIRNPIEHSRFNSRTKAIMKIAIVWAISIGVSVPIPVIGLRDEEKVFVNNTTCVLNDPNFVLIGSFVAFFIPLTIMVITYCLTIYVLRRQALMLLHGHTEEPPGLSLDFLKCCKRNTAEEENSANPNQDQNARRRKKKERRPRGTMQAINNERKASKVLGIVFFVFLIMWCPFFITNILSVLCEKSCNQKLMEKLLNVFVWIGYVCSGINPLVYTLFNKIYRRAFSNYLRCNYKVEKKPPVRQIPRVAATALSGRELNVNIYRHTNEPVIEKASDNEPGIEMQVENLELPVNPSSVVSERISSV
# Description: Binding affinity to 5HT2C receptor (unknown origin)
# [7] = biological target: T1, hERG (KCNH2); assay: Inhibition of human ERG at 10 uM by whole cell based electrophysiology assay
# [8] = tested on: Mus musculus; assay: Antipsychotic-like activity in orally dosed NMRI mouse assessed as reduction in methamphetamine-induced locomotor activity dosed 15 to 30 mins before administration of methamphetamine measured for 60 mins; format: functional; conditions: po, read-out: MED
# [9] = biological target: T4, Adrenergic receptor alpha-2 (Homo sapiens, UniProt P08913+P18825+P18089); assay: Binding affinity to alpha2 adrenoreceptor (unknown origin); format: protein assay
# T4 sequence (P08913 whole entry): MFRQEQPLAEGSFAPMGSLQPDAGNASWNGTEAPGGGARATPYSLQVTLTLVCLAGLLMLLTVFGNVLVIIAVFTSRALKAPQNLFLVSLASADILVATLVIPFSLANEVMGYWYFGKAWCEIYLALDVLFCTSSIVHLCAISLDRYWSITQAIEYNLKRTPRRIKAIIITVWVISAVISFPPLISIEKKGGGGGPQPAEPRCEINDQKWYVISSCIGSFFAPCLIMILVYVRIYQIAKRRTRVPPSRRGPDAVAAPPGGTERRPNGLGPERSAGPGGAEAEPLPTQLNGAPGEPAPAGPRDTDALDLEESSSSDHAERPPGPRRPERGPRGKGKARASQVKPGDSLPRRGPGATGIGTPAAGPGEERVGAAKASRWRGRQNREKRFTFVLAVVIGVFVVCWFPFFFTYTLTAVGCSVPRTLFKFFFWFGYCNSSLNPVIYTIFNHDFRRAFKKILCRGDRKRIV
# T4 sequence (P18825 whole entry): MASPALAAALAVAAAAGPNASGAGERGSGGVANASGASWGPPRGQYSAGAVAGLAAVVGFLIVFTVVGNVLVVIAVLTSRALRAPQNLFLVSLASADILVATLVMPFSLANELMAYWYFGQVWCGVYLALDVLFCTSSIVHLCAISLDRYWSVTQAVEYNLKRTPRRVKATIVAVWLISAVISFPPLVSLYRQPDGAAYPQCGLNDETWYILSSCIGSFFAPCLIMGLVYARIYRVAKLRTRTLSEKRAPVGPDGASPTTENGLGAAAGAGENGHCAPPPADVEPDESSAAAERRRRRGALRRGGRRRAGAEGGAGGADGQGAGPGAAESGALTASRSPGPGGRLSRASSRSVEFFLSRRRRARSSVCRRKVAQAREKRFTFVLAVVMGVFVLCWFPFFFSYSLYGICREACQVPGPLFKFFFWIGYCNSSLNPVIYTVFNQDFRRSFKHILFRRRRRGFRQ
# T4 sequence (P18089 whole entry): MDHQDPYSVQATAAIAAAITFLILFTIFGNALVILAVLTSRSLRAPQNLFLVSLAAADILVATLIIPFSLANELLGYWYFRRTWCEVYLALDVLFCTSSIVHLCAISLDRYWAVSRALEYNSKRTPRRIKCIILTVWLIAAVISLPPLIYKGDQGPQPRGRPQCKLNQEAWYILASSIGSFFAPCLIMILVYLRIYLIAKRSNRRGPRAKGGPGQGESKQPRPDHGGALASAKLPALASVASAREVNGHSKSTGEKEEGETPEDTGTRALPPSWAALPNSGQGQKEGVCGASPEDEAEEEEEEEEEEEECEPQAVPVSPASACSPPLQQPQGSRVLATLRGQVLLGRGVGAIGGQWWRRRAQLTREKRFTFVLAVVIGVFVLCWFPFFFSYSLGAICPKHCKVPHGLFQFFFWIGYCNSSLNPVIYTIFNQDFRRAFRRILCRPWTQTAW
# [10] = tested on: Heart; assay: Cardiotoxicity in Langendorff-perfused Sprague-Dawley rat heart assessed as effect on left ventricle pressure up to 10 uM; format: toxicity, tissue-based
# T1 sequence (Q12809 whole entry): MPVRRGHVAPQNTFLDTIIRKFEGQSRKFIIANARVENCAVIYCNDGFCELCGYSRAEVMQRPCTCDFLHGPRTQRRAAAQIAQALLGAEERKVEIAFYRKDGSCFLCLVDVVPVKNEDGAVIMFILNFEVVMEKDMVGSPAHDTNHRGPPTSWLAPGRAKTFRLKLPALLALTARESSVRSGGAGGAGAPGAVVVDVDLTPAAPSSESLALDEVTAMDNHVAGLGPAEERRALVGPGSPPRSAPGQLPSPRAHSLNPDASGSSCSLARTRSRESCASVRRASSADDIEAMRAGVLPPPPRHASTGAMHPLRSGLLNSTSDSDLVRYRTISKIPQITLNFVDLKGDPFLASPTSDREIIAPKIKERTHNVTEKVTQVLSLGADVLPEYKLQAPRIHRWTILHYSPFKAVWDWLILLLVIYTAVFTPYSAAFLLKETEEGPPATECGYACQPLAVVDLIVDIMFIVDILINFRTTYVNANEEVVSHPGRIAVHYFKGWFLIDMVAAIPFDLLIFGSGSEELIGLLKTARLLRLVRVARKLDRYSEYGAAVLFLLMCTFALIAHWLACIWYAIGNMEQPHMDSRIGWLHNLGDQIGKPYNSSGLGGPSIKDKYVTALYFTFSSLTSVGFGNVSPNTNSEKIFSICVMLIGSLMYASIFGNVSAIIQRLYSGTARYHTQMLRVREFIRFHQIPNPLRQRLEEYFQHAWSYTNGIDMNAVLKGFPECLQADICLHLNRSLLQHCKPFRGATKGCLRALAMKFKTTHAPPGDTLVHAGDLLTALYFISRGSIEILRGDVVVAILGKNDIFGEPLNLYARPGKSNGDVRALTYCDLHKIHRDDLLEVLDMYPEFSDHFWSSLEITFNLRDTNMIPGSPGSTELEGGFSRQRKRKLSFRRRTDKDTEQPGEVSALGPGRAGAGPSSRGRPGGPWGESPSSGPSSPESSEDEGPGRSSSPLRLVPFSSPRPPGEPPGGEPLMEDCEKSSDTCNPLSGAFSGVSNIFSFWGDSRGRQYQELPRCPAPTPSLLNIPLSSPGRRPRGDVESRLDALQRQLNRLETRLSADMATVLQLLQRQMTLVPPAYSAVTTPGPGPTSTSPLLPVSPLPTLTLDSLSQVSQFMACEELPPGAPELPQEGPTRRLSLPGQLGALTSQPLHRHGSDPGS
smiles,measurement,setting,value
O=C(NCCCCN1CCN(c2ccccc2)CC1)c1ccc2ncccc2c1,inhibition at 1 µM,[1],10%
same,inhibition at 3 µM,[2],24%
same,Ki,[3],99 nM
same,Activity,[4],Toxic
same,Activity,[5],Non-toxic
same,Ki,[6],> 1000 nM
same,inhibition at 10 µM,[7],47%
same,minimal effective dose,[8],> 30 mg/kg
same,Ki,[9],150 nM
same,Activity,[10],Non-toxic
